Patent US10519154B2, “7-substituted 1-pyridyl-naphthyridine-3-carboxylic acid amides and use thereof” (Bayer Pharma Aktiengesellschaft, priority 2016, dated 2019)

Target: T1, human M2 receptor (Homo sapiens, UniProt P08172)
T1 sequence (P08172 1-466): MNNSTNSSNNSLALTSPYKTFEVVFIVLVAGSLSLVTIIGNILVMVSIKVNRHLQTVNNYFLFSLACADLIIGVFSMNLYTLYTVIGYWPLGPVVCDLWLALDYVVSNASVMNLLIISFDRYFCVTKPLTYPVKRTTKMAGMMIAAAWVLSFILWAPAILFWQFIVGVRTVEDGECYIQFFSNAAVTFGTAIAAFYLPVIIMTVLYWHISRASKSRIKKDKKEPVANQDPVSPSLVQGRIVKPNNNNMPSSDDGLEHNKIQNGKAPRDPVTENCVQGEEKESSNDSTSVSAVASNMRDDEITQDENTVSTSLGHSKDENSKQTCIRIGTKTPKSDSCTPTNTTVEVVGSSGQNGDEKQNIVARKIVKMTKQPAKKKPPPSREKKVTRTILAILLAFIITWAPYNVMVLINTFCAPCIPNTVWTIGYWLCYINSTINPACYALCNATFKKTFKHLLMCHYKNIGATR
Assay: Functional M2-GIRK1/4 activation test: allosteric potency (EC50) and efficiency
Details: for EC50: Receptor activity EC50, CHO-DUKX-M2-GIRK cells, acetylcholine at EC20, in some cases mean of two or more determinations; for Emax: read-out: Efficiency, boosting of the acetylcholine effect at EC20 acetylcholine concentration

| EC50 [nM] | Emax (CHO-DUKX-M2-GIRK cells) [%] | Efficiency (boosting of the acetylcholine effect at EC20 acetylcholine concentration, CHO-DUKX-M2-GIRK cells) [%] | SMILES |
| --- | --- | --- | --- |
| 155 | 90.5 | – | O=C(NC(CC(F)(F)F)C(F)(F)F)c1cn(-c2ncc(F)cc2F)c2nc(N3C[C@@H](O)[C@H](O)C3)ccc2c1=O (stereo partly drawn) [Example 160, 1-(3,5-Difluoropyridin-2-yl)-7-[(3R,4R)-3,4-dihydroxypyrrolidin-1-yl]-N-[1,1,1,4,4,4-hexafluorobutan-2-yl]-4-oxo-1,4-dihydro-1,8-naphthyridine-3-carboxamide] |
| 94 | 100 | – | O=C(NC(CC(F)(F)F)C(F)(F)F)c1cn(-c2ncc(F)cc2F)c2nc(N3C[C@@H](O)CC3=O)ccc2c1=O (stereo partly drawn) [Example 159, 1-(3,5-Difluoropyridin-2-yl)-N-[1,1,1,4,4,4-hexafluorobutan-2-yl]-7-[(4S)-4-hydroxy-2-oxopyrrolidin-1-yl]-4-oxo-1,4-dihydro-1,8-naphthyridine-3-carboxamide] |
| 32 | – | 100.00 | CCC(NC(=O)c1cn(-c2ncc(F)cc2F)c2nc(N3C[C@@H](O)CC3=O)ccc2c1=O)C(F)(F)C(F)(F)F (single isomer, unassigned) [Example 94] |
| 53 | 100 | – | CC(NC(=O)c1cn(-c2ncc(F)cc2F)c2nc(N3CC(CO)(CO)C3)ccc2c1=O)C(F)(F)C(F)(F)F (single isomer, unassigned) [Example 183, 7-[3,3-Bis(hydroxymethyl)azetidin-1-yl]-1-(3,5-difluoropyridin-2-yl)-4-oxo-N-[3,3,4,4,4-pentafluorobutan-2-yl]-1,4-dihydro-1,8-naphthyridine-3-carboxamide] |
| 90 | 90 | – | CC[C@H](NC(=O)c1cn(-c2ncc(F)cc2F)c2nc(N3C[C@@H](C)NC3=O)ccc2c1=O)C(F)(F)F [Example 143, 1-(3,5-difluoropyridin-2-yl)-7-[(4R)-4-methyl-2-oxoimidazolidin-1-yl]-4-oxo-N-[(2S)-1,1,1-trifluorobutan-2-yl]-1,4-dihydro-1,8-naphthyridine-3-carboxamide] |

Continued, compound first:

| SMILES | EC50 [nM] | Emax (CHO-DUKX-M2-GIRK cells) [%] | Efficiency (boosting of the acetylcholine effect at EC20 acetylcholine concentration, CHO-DUKX-M2-GIRK cells) [%] |
| --- | --- | --- | --- |
| CC[C@@H](NC(=O)c1cn(-c2ncccc2F)c2nc(N3CC4CC4(O)C3)ccc2c1=O)C(F)(F)F (mixture of isomers) [Example 134, 1-(3-Fluoropyridin-2-yl)-7-[1-hydroxy-3-azabicyclo[3.1.0]hex-3-yl]-4-oxo-N-[(2R)-1,1,1-trifluorobutan-2-yl]-1,4-dihydro-1,8-naphthyridine-3-carboxamide] | 105 | 100 | – |
| O=C(NC12CC(C1)C2)c1cn(-c2ncc(F)cc2F)c2nc(N3C[C@@H](O)CC3=O)ccc2c1=O [Example 101, N-(Bicyclo[1.1.1]pent-1-yl)-1-(3,5-difluoropyridin-2-yl)-7-[(4S)-4-hydroxy-2-oxopyrrolidin-1-yl]-4-oxo-1,4-dihydro-1,8-naphthyridine-3-carboxamide] | 585 | 78.5 | – |
| CC(C)(C)[C@H](NC(=O)c1cn(-c2ncc(F)cc2F)c2nc(N3CCNC3=O)ccc2c1=O)C(F)(F)F [Example 100, 1-(3,5-Difluoropyridin-2-yl)-4-oxo-7-(2-oxoimidazolidin-1-yl)-N-[(2S)-1,1,1-trifluoro-3,3-dimethylbutan-2-yl]-1,4-dihydro-1,8-naphthyridine-3-carboxamide] | 26 | 100 | – |
| O=C(N[C@H](C1CC1)C(F)(F)F)c1cn(-c2ncc(F)cc2F)c2nc(N3CCNC3=O)ccc2c1=O [Example 65, N-[(1R)-1-Cyclopropyl-2,2,2-trifluoroethyl]-1-(3,5-difluoropyridin-2-yl)-4-oxo-7-(2-oxoimidazolidin-1-yl)-1,4-dihydro-1,8-naphthyridine-3-carboxamide] | 87 | 100 | – |
| CC(C)(CC(F)(F)F)NC(=O)c1cn(-c2ncc(F)cc2F)c2nc(N3C[C@@H](O)CC3=O)ccc2c1=O [Example 80, 1-(3,5-Difluoropyridin-2-yl)-7-[(4S)-4-hydroxy-2-oxopyrrolidin-1-yl]-4-oxo-N-(4,4,4-trifluoro-2-methylbutan-2-yl)-1,4-dihydro-1,8-naphthyridine-3-carboxamide] | 120 | 100 | – |
